From patent publication US11041184B2, “Mycobacteriophages capable of delivering auto-luminescent elements and uses thereof” (priority 2016, dated 2021)

Tested on: Mtb
Test: detecting sensitivity of a host bacterial strain (Mtb) to a drug with the ARP phage, luminescence read with a luminometer
Type: cell-based, Mycobacterium tuberculosis
Settings: for bioluminescence intensity compared to a control: culture at 37° C. for at least 4 hours, DMSO control
[1] = 37° C., at least 4 hours, RIF 2 μg/mL, INH 1 μg/mL, LZD 1 μg/mL, PNU 0.5 μg/mL
[2] = FIG. 12, RIF 2 μg/mL, INH 1 μg/mL, LZD 1 μg/mL, PNU 0.5 μg/mL

SMILES	bioluminescence compared to a control (FIG. 12, culture for 8 hours, EMB 5 μg/mL)	statistical difference between drug group and DMSO control (n.s., p>0.05) (FIG. 12 legend, EMB 5 μg/mL, time not printed in legend)	sensitivity of Mtb to the drug at the concentration (culture for 8 hours, EMB 5 μg/mL)	sensitivity of Mtb to the drug at the concentration [1]	bioluminescence intensity compared to a control [2]
CC[C@@H](CO)NCCN[C@@H](CC)CO [ethambutol]	significant decrease in bioluminescence	no statistical difference	sensitivity	–	–
NNC(=O)c1ccncc1 [isoniazid]	–	–	–	sensitivities	significant decrease of bioluminescence intensity
CC(=O)NC[C@H]1CN(c2ccc(N3CCOCC3)c(F)c2)C(=O)O1 [linezolid]	–	–	–	sensitivities	significant decrease of bioluminescence intensity
